What all share (type): cell-based
In test [1] the test system is Staphylococcus aureus 757 (MRSA). In words: MIC by broth microdilution, SA 757. Conditions: read-out: MIC SA 757. Here is the method: (§1) Antibacterial activity in vitro is investigated by broth microdilution method in Meuller-Hinton broth as recommended by NCCLS. All strains tested are clinical isolates either sensitive or resistant to natural glycopeptides. MIC values were determined using the CLSI-recommended broth microdilution procedure (Clinical and Laboratory Standards Institute, Methods for Dilution Antimicrobial Susceptibility Tests for Bacteria That Grow Aerobically; Approved Standard-Seventh Edition.). Automated liquid handlers (Multidrop 384, Labsystems, Helsinki, Finland; Biomek 2000 and Multimek 96, Beckman Coulter, Fullerton Calif.) were used to conduct serial dilutions and liquid transfers. The MIC value for vancomycin is given for comparison. The abbreviations for organisms tested are as follow: SA 100—Staphylococcus aureus 100 (ATCC 29213); SA 757—Staphylococcus aureus 757 (MRSA); SA 2012—Staphylococcus aureus 2012 (VISA); SE 835—Staphylococcus epidermidis 835; SE 831—Staphylococcus epidermidis 831 (MRSE); EFc 101—Enterococcus faecalis 101 (ATCC 29212); EFc 848—Enterococcus faecalis 848 (VRE, Van A); EFcm 800—Enterococcus faecium 800; EFcm 752—Enterococcus faecium 752 (VRE, Van A); SPNE 1195—Streptococcus pneumoniae 1195 (ATCC 49619); SPY 712—Streptococcus pyogenes 712.

The subject of test [2] is Enterococcus faecalis 101 (ATCC 29212). In words: MIC by broth microdilution, EFc 101. As to conditions: class symbols. Here is the method: as §1
Test [3] has as its system Staphylococcus epidermidis 835. Put plainly: MIC by broth microdilution, SE 835. On the procedure: as §1
Test [4] relates to Staphylococcus epidermidis 831 (MRSE). Put plainly: MIC by broth microdilution, SE 831. As to conditions: read-out: MIC SE 831. On the procedure: as §1
For test [5], the system named is Staphylococcus aureus 100 (ATCC 29213). In words: MIC by broth microdilution, SA 100. Here is the method: as §1
For test [6], the system named is Streptococcus pyogenes 712. Put plainly: MIC by broth microdilution, SPY 712. On the procedure:
as §1

The test system of another test is Enterococcus faecium 800. Put plainly: MIC by broth microdilution, EFcm 800. On the procedure: as §1
In test [7] the test system is Streptococcus pneumoniae 1195 (ATCC 49619). In words: MIC by broth microdilution, SPNE 1195. Here is the method: as §1
Test [8] concerns Staphylococcus aureus 2012 (VISA). Put plainly: MIC by broth microdilution, SA 2012. Conditions: class symbols. Here is the method: as §1
For test [9], the system named is Enterococcus faecalis 848 (VRE, Van A). In words: MIC by broth microdilution, EFc 848. As to conditions: class symbols. On the procedure: as §1
Test [10] concerns Enterococcus faecium 752 (VRE, Van A). In words: MIC by broth microdilution, EFcm 752. As to conditions: class symbols. On the procedure:
as §1

The mark [11] stands for this setting: Staphylococcus aureus 757 (MRSA), class symbols.
[12] abbreviates: ATCC29212, Enterococcus faecalis 101 (ATCC 29212), read-out: MIC E FC 101.
[13] abbreviates: Staphylococcus epidermidis 835, class symbols, read-out: MIC SE 835.
Where [14] appears, read: Staphylococcus epidermidis 831 (MRSE), class symbols.
The mark [15] stands for this setting: ATCC29213, Staphylococcus aureus 100 (ATCC 29213), class symbols, read-out: MIC SA 100.
Setting [16] is: Streptococcus pyogenes 712, class symbols, read-out: MIC S PYO 712.
Setting [17] is: Enterococcus faecium 800, class symbols, read-out: MIC E FCM 800.
The mark [18] stands for this setting: ATCC49619, Streptococcus pneumoniae 1195 (ATCC 49619), class symbols, read-out: MIC S PNE 1195.
[19] abbreviates: Staphylococcus aureus 2012 (VISA), read-out: MIC SA 2012.
Where [20] appears, read: Enterococcus faecalis 848 (VRE, Van A), read-out: MIC E FC 848.
Where [21] appears, read: Enterococcus faecium 752 (VRE, Van A), read-out: MIC E FCM 752.

The structures appear in SMILES notation. Converted amounts (≈) assume the structure as drawn. Like-named read-outs stand apart in the source and are kept apart here. Where only a bound is given, the exact number is not on record here.

On to `CCCCCCc1ccc(S(=O)(=O)NCCCCCCNCc2c(O)cc3c(c2O)-c2cc(ccc2O)[C@H]2NC(=O)[C@@H]4NC(=O)[C@H](CC(N)=O)NC(=O)[C@H](NC(=O)[C@@H](CC(C)C)NC)[C@H](O)c5ccc(c(Cl)c5)Oc5cc4cc(c5O[C@@H]4O[C@H](CO)[C@@H](O)[C@H](O)[C@H]4O[C@H]4C[C@](C)(NC(N)=O)[C@H](OC(N)=O)[C@H](C)O4)Oc4ccc(cc4Cl)[C@@H](O)[C@H](NC2=O)C(=O)N[C@@H]3C(=O)O)cc1` (atropisomer, axis not shown) [Compound 370], for which the MIC in test [1] (setting [11]), in test [2] (setting [12]), in [3] (setting [13]), in [4] (setting [14]), in test [5] (setting [15]) and in test [6] (setting [16]) was 0.01 to 0.5 µg/mL (≈ 0.0053 to 0.265 µM) throughout. The minimal inhibitory concentration (MIC) was 0.01 to 0.5 µg/mL (≈ 0.0053 to 0.265 µM) in the test on Enterococcus faecium 800 (setting [17]); 0.01 to 0.5 µg/mL (≈ 0.0053 to 0.265 µM) in test [7] (setting [18]); 0.01 to 0.5 µg/mL (≈ 0.0053 to 0.265 µM) in [8] (setting [19]); more than 16 µg/mL in test [9] (setting [20]); 4 to 8 µg/mL (≈ 2.12 to 4.24 µM) in test [10] (setting [21]).
Consider `CCCCCOc1ccc(S(=O)(=O)NCCCCCCNC(=O)Oc2cc(O)c3c(c2)[C@@H](C(=O)O)NC(=O)[C@H]2NC(=O)[C@H](NC(=O)[C@@H]4NC(=O)[C@H](CC(N)=O)NC(=O)[C@H](NC(=O)[C@@H](CC(C)C)NC)[C@H](O)c5ccc(c(Cl)c5)Oc5cc4cc(c5O[C@@H]4O[C@H](CO)[C@@H](O)[C@H](O)[C@H]4O[C@H]4C[C@](C)(N)[C@H](O)[C@H](C)O4)Oc4ccc(cc4Cl)[C@H]2O)c2ccc(O)c-3c2)cc1` (atropisomer, axis not shown) [Compound 322], for which the MIC in test [1] (Staphylococcus aureus, MRSA) lay within 0.01 to 0.5 µg/mL (≈ 0.0055 to 0.275 µM); in [2] (Enterococcus faecalis, ATCC29212, read-out: MIC E FC 101, Enterococcus faecalis 101 (ATCC 29212)), 0.01 to 0.5 µg/mL (≈ 0.0055 to 0.275 µM); in test [3] (Staphylococcus epidermidis, 835, read-out: MIC SE 835), 0.01 to 0.5 µg/mL (≈ 0.0055 to 0.275 µM); in test [4] (Staphylococcus epidermidis, MRSE), 0.01 to 0.5 µg/mL (≈ 0.0055 to 0.275 µM); in test [5] (Staphylococcus aureus, ATCC29213, read-out: MIC SA 100), 0.01 to 0.5 µg/mL (≈ 0.0055 to 0.275 µM); in test [6] (Streptococcus pyogenes, 712, read-out: MIC S PYO 712) it was 0.01 to 0.5 µg/mL (≈ 0.0055 to 0.275 µM). Moreover, the MIC was 0.01 to 0.5 µg/mL (≈ 0.0055 to 0.275 µM) with Enterococcus faecium 800 (Enterococcus faecium, 800, read-out: MIC E FCM 800); 0.01 to 0.5 µg/mL (≈ 0.0055 to 0.275 µM) in test [7] (Streptococcus pneumoniae, ATCC49619, read-out: MIC S PNE 1195); 1 to 2 µg/mL (≈ 0.55 to 1.1 µM) in [8] (Staphylococcus aureus, VISA, read-out: MIC SA 2012, Staphylococcus aureus 2012 (VISA)); 8 to 16 µg/mL (≈ 4.4 to 8.8 µM) in test [9] (Enterococcus faecalis, VRE, read-out: MIC E FC 848, Enterococcus faecalis 848 (VRE, Van A)); 2 to 4 µg/mL (≈ 1.1 to 2.2 µM) in [10] (Enterococcus faecium, VRE, read-out: MIC E FCM 752, Enterococcus faecium 752 (VRE, Van A)).
`CCCCCOc1ccc(S(=O)(=O)NCCCCCCNCc2c(O)cc3c(c2O)-c2cc(ccc2O)[C@H]2NC(=O)[C@@H]4NC(=O)[C@H](CC(N)=O)NC(=O)[C@H](NC(=O)[C@@H](CC(C)C)NC)[C@H](O)c5ccc(c(Cl)c5)Oc5cc4cc(c5O[C@@H]4O[C@H](CO)[C@@H](O)[C@H](O)[C@H]4O[C@H]4C[C@](C)(NC(=O)CN)[C@H](O)[C@H](C)O4)Oc4ccc(cc4Cl)[C@@H](O)[C@H](NC2=O)C(=O)N[C@@H]3C(=O)O)cc1` (atropisomer, axis not shown) [Compound 345]: the MIC in test [1] (setting [11]), in test [2] (setting [12]), in [3] (setting [13]), in [4] (setting [14]), in test [5] (setting [15]) and in test [6] (setting [16]) was 0.01 to 0.5 µg/mL (≈ 0.00537 to 0.269 µM) in each case. Besides, the MIC was 0.01 to 0.5 µg/mL (≈ 0.00537 to 0.269 µM) in the test with Enterococcus faecium 800 (setting [17]); 0.01 to 0.5 µg/mL (≈ 0.00537 to 0.269 µM) in test [7] (setting [18]); 0.01 to 0.5 µg/mL (≈ 0.00537 to 0.269 µM) in [8] (setting [19]); more than 16 µg/mL in test [9] (setting [20]); 8 to 16 µg/mL (≈ 4.3 to 8.6 µM) in test [10] (setting [21]).
For `CCCCCCc1ccc(S(=O)(=O)NCCOCCNCc2c(O)cc3c(c2O)-c2cc(ccc2O)[C@H]2NC(=O)[C@@H]4NC(=O)[C@H](CC(N)=O)NC(=O)[C@H](NC(=O)[C@@H](CC(C)C)NC)[C@H](O)c5ccc(c(Cl)c5)Oc5cc4cc(c5O[C@@H]4O[C@H](CO)[C@@H](O)[C@H](O)[C@H]4O[C@H]4C[C@]5(C)NC(=O)O[C@@H]5[C@H](C)O4)Oc4ccc(cc4Cl)[C@@H](O)[C@H](NC2=O)C(=O)N[C@@H]3C(=O)O)cc1` (atropisomer, axis not shown) [Compound 308], the MIC in test [1] (setting [11]), in test [2] (setting [12]), in test [3] (setting [13]), in test [4] (setting [14]), in test [5] (setting [15]) and in test [6] (setting [16]) was 0.01 to 0.5 µg/mL (≈ 0.00551 to 0.275 µM) in each case. Besides, the minimum inhibitory concentration (MIC) in the test on Enterococcus faecium 800 (setting [17]) was 0.01 to 0.5 µg/mL (≈ 0.00551 to 0.275 µM); in test [7] (setting [18]), 0.01 to 0.5 µg/mL (≈ 0.00551 to 0.275 µM); in test [8] (setting [19]), 0.5 to 1 µg/mL (≈ 0.275 to 0.551 µM); in test [9] (setting [20]), more than 16 µg/mL; in [10] (setting [21]) it was 4 to 8 µg/mL (≈ 2.2 to 4.41 µM).
